Laboratory results as given in patent US20260373266A1, “PROTEIN DEGRADERS AND USES THEREOF” (KYMERA THERAPEUTICS, INC., priority 2022, published 2026).

biological target: T1, DCAF1 WD40 domain (residues 1077-1390) (Homo sapiens, UniProt Q9Y4B6); experiment: DCAF1 binding assay by SPR (Biacore 8K+), DCAF1-3 KD; conditions: 25 °C, read-out: DCAF1-3 SPR (KD)
T1 construct: DCAF1 WD40 domain (residues 1077-1390)
T1 sequence (Q9Y4B6 1077-1390): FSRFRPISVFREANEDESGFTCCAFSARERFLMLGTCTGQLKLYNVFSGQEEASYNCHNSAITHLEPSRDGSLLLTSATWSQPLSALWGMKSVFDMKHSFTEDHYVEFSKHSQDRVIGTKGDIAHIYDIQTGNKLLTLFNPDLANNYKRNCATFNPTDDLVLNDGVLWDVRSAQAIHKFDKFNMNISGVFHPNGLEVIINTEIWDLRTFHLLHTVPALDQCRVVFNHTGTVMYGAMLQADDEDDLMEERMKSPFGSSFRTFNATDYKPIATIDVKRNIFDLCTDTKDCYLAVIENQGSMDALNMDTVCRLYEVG

Row | SMILES | Kd [µM]
1 | Cc1sc2c(c1C)C(c1ccc(Cl)cc1)=N[C@@H](CC(=O)NCCOCCOCCOCCOCCOCCCc1ccc(C(=O)c3[nH]cc(C(=O)N[C@@H](CC(N)=O)c4cccc(Cl)c4)c3-c3c(F)ccc(F)c3C)cc1)c1nnc(C)n1-2 [I-907] | < 10
2 | Cc1c(F)ccc(F)c1-c1c(C(=O)N[C@@H](CC(N)=O)c2cccc(Cl)c2)cn(C)c1C(=O)c1ccc(CN2CCC(C=O)CC2)cc1 [I-1037] | < 10
3 | NC[C@H]1C[C@H](Nc2cc(N3CCCCC3)ccn2)CN(c2cccc(F)c2)C1 [I-1039] | 10 to 100
4 | NC[C@@H]1C[C@@H](Nc2cc(N3CCCCC3)ccn2)CN(c2cccc(F)c2)C1 [I-1040] | 10 to 100
5 | NC[C@H]1C[C@@H](Nc2cc(N3CCCCC3)ccn2)CN(c2cccc(F)c2)C1 [I-1041] | 10 to 100
6 | NC[C@@H]1C[C@H](Nc2cc(N3CCCCC3)ccn2)CN(c2cccc(F)c2)C1 [I-1042] | 10 to 100
7 | Cc1c(F)c(Cl)cc(F)c1-c1[nH]ncc1C(=O)N[C@@H](CC(N)=O)c1cccc(Cl)c1 [I-1043] | < 10
8 | NC[C@@H]1CCN(c2cccc(F)c2)C[C@H]1Nc1cc(N2CCCCC2)ccn1 [I-1044] | 10 to 100
9 | NC[C@@H]1CCN(c2cccc(F)c2)C[C@@H]1Nc1cc(N2CCCCC2)ccn1 [I-1045] | 100 to 200
10 | CC(=O)NC1CCC2(CC1)CCN(c1ccnc(N3CC[C@@H]4[C@H]3CCCN4c3cccc(F)c3)c1)CC2 [I-1047] | < 10
11 | NC(=O)CC(NC(=O)c1cn[nH]c1-c1c(F)cc(Cl)cc1F)c1ccc(F)c(Cl)c1 (centres unmarked) [I-1049] | < 10
12 | Fc1cccc(N2CCC[C@@H](Nc3cc(N4CCCCC4)cc4c3CNC4)C2)c1 [I-1050] | 10 to 100
13 | Cc1cc(CCCOCCOCCOCCOCCOCCNC(=O)C[C@@H]2N=C(c3ccc(Cl)cc3)c3c(sc(C)c3C)-n3c(C)nnc32)cc(F)c1-c1c(C(=O)N[C@@H](CC(N)=O)c2cccc(Cl)c2)c[nH]c1C#N [I-1051] | < 10
14 | Cc1ccc(CCCOCCOCCOCCOCCOCCNC(=O)C[C@@H]2N=C(c3ccc(Cl)cc3)c3c(sc(C)c3C)-n3c(C)nnc32)c(F)c1-c1c(C(=O)N[C@@H](CC(N)=O)c2cccc(Cl)c2)c[nH]c1C#N [I-1052] | 10 to 100
15 | Cc1nc(Nc2ncc(C(=O)Nc3c(C)cccc3Cl)s2)cc(N2CCC(OC3CCN(CCCCCCCC(=O)N4CCN(c5ccc6c(NCCN)nc(C7(c8ccc(Cl)cc8)CCCCC7)nc6c5)CC4)CC3)CC2)n1 [I-1053] | < 10

same assay, conditions: DCAF1-3 SPR (KD), 25 °C

Row | SMILES | Kd [µM]
16 | Cc1sc2c(c1C)C(c1ccc(Cl)cc1)=N[C@@H](CC(=O)NCCOCCOCCOCCOCCCc1ccc(C(=O)c3[nH]cc(C(=O)N[C@@H](CC(N)=O)c4cccc(Cl)c4)c3-c3c(F)ccc(F)c3C)cc1)c1nnc(C)n1-2 [I-905, N—((S)-3-amino-1-(3-chlorophenyl)-3-oxopropyl)-5-(4-(1-((S)-4-(4-chlorophenyl)-2,3,9-trimethyl-6H-thieno[3,2-f][1,2,4]triazolo[4,3-a][1,4]diazepin-6-yl)-2-oxo-6,9,12,15-tetraoxa-3-azaoctadecan-18-yl)benzoyl)-4-(3,6-difluoro-2-methylphenyl)-1H-pyrrole-3-carboxamide] | < 10

tested on: BRD4 (N-terminally HiBiT-tagged, HEK293T cells); experiment: BRD4 degradation in HiBiT-BRD4-HEK293T cells; type: cell-based; conditions: not given

Row | SMILES | DC50 [µM] | Dmax
17 | Cc1sc2c(c1C)C(c1ccc(Cl)cc1)=N[C@@H](CC(=O)NCCOCCOCCOCCOCCCc1ccc(C(=O)c3[nH]cc(C(=O)N[C@@H](CC(N)=O)c4cccc(Cl)c4)c3-c3c(F)ccc(F)c3C)cc1)c1nnc(C)n1-2 [I-905, N—((S)-3-amino-1-(3-chlorophenyl)-3-oxopropyl)-5-(4-(1-((S)-4-(4-chlorophenyl)-2,3,9-trimethyl-6H-thieno[3,2-f][1,2,4]triazolo[4,3-a][1,4]diazepin-6-yl)-2-oxo-6,9,12,15-tetraoxa-3-azaoctadecan-18-yl)benzoyl)-4-(3,6-difluoro-2-methylphenyl)-1H-pyrrole-3-carboxamide] | > 0.5 | B (70-90%)
18 | Cc1sc2c(c1C)C(c1ccc(Cl)cc1)=N[C@@H](CC(=O)NCCOCCOCCOCCOCCOCCCc1ccc(C(=O)c3[nH]cc(C(=O)N[C@@H](CC(N)=O)c4cccc(Cl)c4)c3-c3c(F)ccc(F)c3C)cc1)c1nnc(C)n1-2 [I-907] | 0.01 to 0.1 | B (70-90%)
